From patent publication US5798247A, “Organic-chemical compound with ice-inhibitory action” (BASF Aktiengesellschaft, priority 1997, dated 1998)
pKi: −log10 of the molar value.

Molecular target: T1, interleukin converting enzyme (ICE) (Homo sapiens, UniProt P29466)
T1 sequence (P29466 120-297 limits assumed): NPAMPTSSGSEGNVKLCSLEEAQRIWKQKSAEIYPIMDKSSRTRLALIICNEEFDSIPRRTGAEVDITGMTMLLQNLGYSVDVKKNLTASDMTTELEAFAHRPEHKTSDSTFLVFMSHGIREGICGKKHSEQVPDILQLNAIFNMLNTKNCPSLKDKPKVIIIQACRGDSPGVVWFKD
T1 sequence (P29466 317-404 limits assumed): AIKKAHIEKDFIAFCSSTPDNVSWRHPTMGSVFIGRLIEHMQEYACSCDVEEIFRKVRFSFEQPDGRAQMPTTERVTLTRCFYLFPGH
Assay: ICE inhibition (inhibition constant)
Format: biochemical
Conditions: reversible covalent binding (thiohemiacetal linkage) to ICE

pKi: ~6.00
Structure (SMILES): O=C(c1ccccc1)c1ccccn1 [2-Benzoylpyridine]
